{"source": "the NIST ThermoML archive (doi:10.1016/j.fluid.2006.09.001)", "conditions": "Liquid, Transpiration method", "note": "Values joined by “and” are separate entries in the source; they are usually repeats but may differ in a detail not shown here. Equal entries are not always repeated. ± gives the expanded uncertainty stated by the source.", "data": [{"compound": "COCCOCCOc1ccccc1Br", "note": "[1-bromo-2-(2-(2-methoxyethoxy)ethoxy)benzene]", "values": [{"measurement": "vapor or sublimation pressure", "setting": "310.4 K", "result": "9e-05 ± 1e-05", "unit": "kPa"}, {"measurement": "vapor or sublimation pressure", "setting": "313.2 K", "result": "0.00012 ± 1e-05", "unit": "kPa"}, {"measurement": "vapor or sublimation pressure", "setting": "317.4 K", "result": "0.00016 ± 1e-05", "unit": "kPa"}, {"measurement": "vapor or sublimation pressure", "setting": "318.6 K", "result": "0.00019 ± 1e-05", "unit": "kPa"}, {"measurement": "vapor or sublimation pressure", "setting": "320.3 K", "result": "0.00021 ± 1e-05", "unit": "kPa"}, {"measurement": "vapor or sublimation pressure", "setting": "322.6 K", "result": "0.00026 ± 1e-05", "unit": "kPa"}, {"measurement": "vapor or sublimation pressure", "setting": "324.3 K", "result": "0.0003 ± 2e-05", "unit": "kPa"}, {"measurement": "vapor or sublimation pressure", "setting": "325.4 K", "result": "0.00036 ± 2e-05", "unit": "kPa"}, {"measurement": "vapor or sublimation pressure", "setting": "327.6 K", "result": "0.00043 ± 2e-05", "unit": "kPa"}, {"measurement": "vapor or sublimation pressure", "setting": "327.7 K", "result": "0.00043 ± 2e-05", "unit": "kPa"}, {"measurement": "vapor or sublimation pressure", "setting": "328.3 K", "result": "0.00047 ± 2e-05 kPa and 0.00045 ± 2e-05 kPa"}, {"measurement": "vapor or sublimation pressure", "setting": "329 K", "result": "0.00045 ± 2e-05", "unit": "kPa"}, {"measurement": "vapor or sublimation pressure", "setting": "332.4 K", "result": "0.00063 ± 3e-05", "unit": "kPa"}, {"measurement": "vapor or sublimation pressure", "setting": "332.5 K", "result": "0.00062 ± 3e-05", "unit": "kPa"}, {"measurement": "vapor or sublimation pressure", "setting": "332.7 K", "result": "0.00063 ± 3e-05", "unit": "kPa"}, {"measurement": "vapor or sublimation pressure", "setting": "334.5 K", "result": "0.00076 ± 4e-05", "unit": "kPa"}, {"measurement": "vapor or sublimation pressure", "setting": "335.4 K", "result": "0.00081 ± 4e-05", "unit": "kPa"}, {"measurement": "vapor or sublimation pressure", "setting": "337.9 K", "result": "0.00096 ± 5e-05", "unit": "kPa"}, {"measurement": "vapor or sublimation pressure", "setting": "339.1 K", "result": "0.00113 ± 6e-05", "unit": "kPa"}, {"measurement": "vapor or sublimation pressure", "setting": "342 K", "result": "0.00135 ± 7e-05", "unit": "kPa"}, {"measurement": "vapor or sublimation pressure", "setting": "343.5 K", "result": "0.00153 ± 8e-05", "unit": "kPa"}, {"measurement": "vapor or sublimation pressure", "setting": "345 K", "result": "0.00167 ± 9e-05", "unit": "kPa"}, {"measurement": "vapor or sublimation pressure", "setting": "346.5 K", "result": "0.00205 ± 0.00011", "unit": "kPa"}, {"measurement": "vapor or sublimation pressure", "setting": "347.6 K", "result": "0.00219 ± 0.00011", "unit": "kPa"}, {"measurement": "vapor or sublimation pressure", "setting": "348 K", "result": "0.0022 ± 0.00012", "unit": "kPa"}, {"measurement": "vapor or sublimation pressure", "setting": "349.5 K", "result": "0.00252 ± 0.00013", "unit": "kPa"}, {"measurement": "vapor or sublimation pressure", "setting": "350.1 K", "result": "0.00253 ± 0.00014", "unit": "kPa"}, {"measurement": "vapor or sublimation pressure", "setting": "350.6 K", "result": "0.0028 ± 0.00018", "unit": "kPa"}, {"measurement": "vapor or sublimation pressure", "setting": "353 K", "result": "0.00325 ± 0.00017", "unit": "kPa"}, {"measurement": "vapor or sublimation pressure", "setting": "355.1 K", "result": "0.00383 ± 0.0002", "unit": "kPa"}, {"measurement": "vapor or sublimation pressure", "setting": "356 K", "result": "0.0041 ± 0.00022", "unit": "kPa"}, {"measurement": "vapor or sublimation pressure", "setting": "359.2 K", "result": "0.0052 ± 0.00027", "unit": "kPa"}, {"measurement": "vapor or sublimation pressure", "setting": "360.3 K", "result": "0.00566 ± 0.0003", "unit": "kPa"}, {"measurement": "vapor or sublimation pressure", "setting": "361.1 K", "result": "0.00611 ± 0.00032", "unit": "kPa"}, {"measurement": "vapor or sublimation pressure", "setting": "363.3 K", "result": "0.007 ± 0.00037", "unit": "kPa"}, {"measurement": "vapor or sublimation pressure", "setting": "365.2 K", "result": "0.00835 ± 0.00044", "unit": "kPa"}, {"measurement": "vapor or sublimation pressure", "setting": "368.4 K", "result": "0.01027 ± 0.00053 kPa and 0.01025 ± 0.00053 kPa"}, {"measurement": "vapor or sublimation pressure", "setting": "370.8 K", "result": "0.01177 ± 0.00061", "unit": "kPa"}, {"measurement": "vapor or sublimation pressure", "setting": "373.5 K", "result": "0.01407 ± 0.00072", "unit": "kPa"}]}, {"compound": "COCCOCCOCCOc1ccccc1Br", "note": "[1-bromo-2-(2-(2-(2-methoxyethoxy)ethoxy)ethoxy)benzene]", "values": [{"measurement": "vapor or sublimation pressure", "setting": "333.2 K", "result": "6.1e-05 ± 3e-06", "unit": "kPa"}, {"measurement": "vapor or sublimation pressure", "setting": "337.3 K", "result": "8.8e-05 ± 5e-06", "unit": "kPa"}, {"measurement": "vapor or sublimation pressure", "setting": "339.3 K", "result": "0.000111 ± 6e-06", "unit": "kPa"}, {"measurement": "vapor or sublimation pressure", "setting": "341.3 K", "result": "0.000132 ± 7e-06", "unit": "kPa"}, {"measurement": "vapor or sublimation pressure", "setting": "343.4 K", "result": "0.000158 ± 8e-06", "unit": "kPa"}, {"measurement": "vapor or sublimation pressure", "setting": "345.5 K", "result": "0.000188 ± 1e-05", "unit": "kPa"}, {"measurement": "vapor or sublimation pressure", "setting": "347.5 K", "result": "0.000218 ± 1.2e-05", "unit": "kPa"}, {"measurement": "vapor or sublimation pressure", "setting": "349.7 K", "result": "0.000272 ± 1.5e-05", "unit": "kPa"}, {"measurement": "vapor or sublimation pressure", "setting": "351.7 K", "result": "0.000329 ± 1.7e-05", "unit": "kPa"}, {"measurement": "vapor or sublimation pressure", "setting": "353.6 K", "result": "0.000382 ± 2e-05", "unit": "kPa"}, {"measurement": "vapor or sublimation pressure", "setting": "355.7 K", "result": "0.000446 ± 2.4e-05", "unit": "kPa"}, {"measurement": "vapor or sublimation pressure", "setting": "357.8 K", "result": "0.000555 ± 3e-05", "unit": "kPa"}, {"measurement": "vapor or sublimation pressure", "setting": "359.8 K", "result": "0.000649 ± 3.4e-05", "unit": "kPa"}, {"measurement": "vapor or sublimation pressure", "setting": "360.6 K", "result": "0.000704 ± 3.8e-05", "unit": "kPa"}, {"measurement": "vapor or sublimation pressure", "setting": "362 K", "result": "0.000796 ± 4.1e-05", "unit": "kPa"}, {"measurement": "vapor or sublimation pressure", "setting": "363 K", "result": "0.000826 ± 4.4e-05", "unit": "kPa"}, {"measurement": "vapor or sublimation pressure", "setting": "365 K", "result": "0.000993 ± 5.3e-05", "unit": "kPa"}, {"measurement": "vapor or sublimation pressure", "setting": "367.9 K", "result": "0.001244 ± 6.5e-05", "unit": "kPa"}, {"measurement": "vapor or sublimation pressure", "setting": "369.9 K", "result": "0.001446 ± 7.5e-05", "unit": "kPa"}]}, {"compound": "COCCOc1ccccc1Br", "note": "[1-bromo-2-(2-methoxyethoxy)benzene]", "values": [{"measurement": "vapor or sublimation pressure", "setting": "302.4 K", "result": "0.0011 ± 6e-05", "unit": "kPa"}, {"measurement": "vapor or sublimation pressure", "setting": "307.4 K", "result": "0.00174 ± 9e-05", "unit": "kPa"}, {"measurement": "vapor or sublimation pressure", "setting": "312.4 K", "result": "0.00268 ± 0.00014", "unit": "kPa"}, {"measurement": "vapor or sublimation pressure", "setting": "315 K", "result": "0.00321 ± 0.00017", "unit": "kPa"}, {"measurement": "vapor or sublimation pressure", "setting": "317.5 K", "result": "0.00391 ± 0.0002", "unit": "kPa"}, {"measurement": "vapor or sublimation pressure", "setting": "319.5 K", "result": "0.00453 ± 0.00024 kPa and 0.00475 ± 0.00025 kPa"}, {"measurement": "vapor or sublimation pressure", "setting": "322.6 K", "result": "0.0062 ± 0.00032", "unit": "kPa"}, {"measurement": "vapor or sublimation pressure", "setting": "324.6 K", "result": "0.00691 ± 0.00036", "unit": "kPa"}, {"measurement": "vapor or sublimation pressure", "setting": "327.6 K", "result": "0.00867 ± 0.00046", "unit": "kPa"}, {"measurement": "vapor or sublimation pressure", "setting": "332.7 K", "result": "0.01255 ± 0.00066", "unit": "kPa"}, {"measurement": "vapor or sublimation pressure", "setting": "337.8 K", "result": "0.01854 ± 0.00096", "unit": "kPa"}, {"measurement": "vapor or sublimation pressure", "setting": "343 K", "result": "0.02628 ± 0.0014", "unit": "kPa"}, {"measurement": "vapor or sublimation pressure", "setting": "348.1 K", "result": "0.03518 ± 0.0018", "unit": "kPa"}, {"measurement": "vapor or sublimation pressure", "setting": "353.2 K", "result": "0.04763 ± 0.0024", "unit": "kPa"}, {"measurement": "vapor or sublimation pressure", "setting": "356.3 K", "result": "0.05583 ± 0.0029", "unit": "kPa"}, {"measurement": "vapor or sublimation pressure", "setting": "358.2 K", "result": "0.06719 ± 0.0035", "unit": "kPa"}, {"measurement": "vapor or sublimation pressure", "setting": "360.7 K", "result": "0.07401 ± 0.0038", "unit": "kPa"}, {"measurement": "vapor or sublimation pressure", "setting": "361.8 K", "result": "0.07914 ± 0.004", "unit": "kPa"}, {"measurement": "vapor or sublimation pressure", "setting": "363.3 K", "result": "0.08516 ± 0.0044", "unit": "kPa"}, {"measurement": "vapor or sublimation pressure", "setting": "366.8 K", "result": "0.1095 ± 0.0056", "unit": "kPa"}, {"measurement": "vapor or sublimation pressure", "setting": "368.4 K", "result": "0.1199 ± 0.0061", "unit": "kPa"}]}]}
